What was measured:
[1] = test system: CXCL5 expression in PC-3 cells; experiment: Blocking experiments with shCXCL5, CXCL5 levels by Elisa in PC-3 cells; type: cell-based; details: PC-3 cells transfected with shCXCL5 vector, compared to Non-Target shRNA Control Vector, after 4 days, Elisa (FIG. 9B)
Method: (§1) A. PC-3 cells were grown for 4 days and either non treated (Control) or treated with goat serum (diluted 1/20) as isotype control antibody (Isotype) or with 0.5 μg/ml of CXCL5 antibody (CXCL5 Ab). Medium with or without treatment was changed at day 2. Results represent the mean of luciferase activity±SD after 4 days of 3 independent experiments. B, C. PC-3 cells were transfected with Non-Target shRNA Control (shCt) or shCXCL5 vector. 4 days later, the medium was collected and CXCL5 levels were measured by Elisa (B). The number of cells was counted on day 4 (C). A representative experiment is shown here.
(§2) 10^5 PC-3 cells plated in 6 well plated in 10% FCS with RPMI 1640 were transfected with 4 μg of Non-Target shRNA Control Vector (ShC002, Mission Library, Sigma-Aldrich) or shCXCL5 vector (SHCLND-NM_002994-TRCN0000057934NM_002994.3-304s1c1TRC1, Sequence SEQ ID NO: 6: […] Mission Library, Sigma-Aldrich) using Jet-PEI® protocol in each well. 8 h after transfection medium was changed. CXCL5 secretion was quantified 48 h later in conditioned medium by ELISA (Duoset, DY254, R&D system). Cells were counted 4 days after transfection using malassez slide.

[2] = test system: PC-3 cells; experiment: Blocking experiments with shCXCL5, PC-3 cell proliferation; type: cell-based; details: PC-3 cells transfected with shCXCL5 vector, cells counted on day 4 (FIG. 9C)
Method: as §1, §2

[3] = test system: CXCL5 RNA levels in LNCaP cells; details: CDFCS + 10^-8 M Dihydrotestosterone vs CDFCS (FIG. 5B)
Method: CXCL5 RNA levels were measured by real-time PCR. CXCL5 levels in the presence of FCS were set to 1. Results represent the mean±SD of 3 independent experiments.
CWR-R1 and LNCaP cells were maintained in RPMI 1640 with Glutamax (Invitrogen, Carlsbad, USA), completed with 10% Foetal Calf Serum (FCS) and gentamycin. For androgen stimulations, cells were weaned off steroids before any experiment by culturing them in phenol red-free RPMI 1640 supplemented with 10% CDFCS (charcoal dextran-treated FCS) for 4 days.
Total RNA was prepared using TriReagent (Euromedex, Souffelweyersheim, France). The amount of RNA was estimated by spectrophotometry at 260 nm. Complementary DNAs (cDNA) were obtained from reverse transcription (RT) of 3 μg of total RNA in 13 μl of water RNase free. 1 μl of random hexanucleotides as primers (pd(N)6, 50 mM) in the presence of 1 μl of dNTPs (250 mM; Gibco BRL) were added to the RNA and incubated 5 minutes at 70° C. After, 5 μl of mix containing reverse transcriptase (1 μl) and reverse transcriptase buffer 5× (4 μl) were added to the RNA solution and incubated 1 h at 42° C. Real-time PCR quantification was then performed using a SYBR Green approach (Light Cycler; Roche) as previously described (Lucas et al. 2003 Biochem Biophys Res Commun 309:1011-1016). For each sample, CXCL5 mRNA levels were normalized with RS9 mRNA levels (reference gene).

[4] = test system: CXCL5 RNA levels in CWR-R1 cells; experiment: CXCL5 RNA levels by real-time PCR in CWR-R1 cells; type: cell-based; details: CDFCS + 10^-8 M Dihydrotestosterone vs CDFCS (FIG. 5A)
Description: (§3) Results represent the mean±SD of 3 independent experiments.
as §3

[5] = test system: CWR-R1 cells; experiment: In vitro proliferation of CWR-R1 cells; type: cell-based; details: CXCL5 1 or 50 ng/ml with 10^-5 M bicalutamide, 5 days (FIG. 6B)
Method: CWR-R1 cells were cultured in whole fetal calf serum (FCS), in the absence or in the presence of […] of bicalutamide. CXCL5 RNA levels were measured by real-time PCR. […] Results represent the mean±SD of 3 independent experiments. B. CXCL5 enhances the proliferation of CWR-R1 cells both in the absence and in the presence of the anti-androgen bicalutamide. CWR-R1 cells were cultured in FCS. Some cells were treated with 10^-5 M bicalutamide. The cells were either treated with Ethanol vehicle (C) or with CXCL5 (1 or 50 ng/ml). Proliferation was quantified 5 days after treatment by counting the cells.
2.5×10^4 cells per well were seeded in triplicate in 24-well culture plates in complete growth media previously described. Cell numbers were determined every two days for 6 days by counting with a malassez slide or by measuring of luciferase activity. For proliferation in complete fetal calf serum, cells were maintained in […] with RPMI 1640. To test the effects of androgens, cells were maintained in phenol-red free RPMI 1640 medium supplemented with 10% FCS.

shCXCL5: shRNA vector against CXCL5, SEQ ID NO: 6, Mission Library, Sigma-Aldrich (DNA CCGGGATCAGTAATCTGCAAGTGTTCTCGAGAACACTTGCAGATTACTGATCTTTTTG)
CXCL5 expression [1]: strongly reduced
inhibition of proliferation of PC-3 cells [2]: more than 10 fold

C[C@]12CCC(=O)C[C@@H]1CC[C@@H]1[C@@H]2CC[C@]2(C)[C@@H](O)CC[C@@H]12 [dihydrotestosterone]
effect on levels of CXCL5 RNA [3]: partially reduced
effect on levels of CXCL5 RNA [4]: partially reduced

recombinant CXCL5: recombinant C-X-C motif chemokine 5 added to CWR-R1 cells
effect on the inhibition of proliferation by bicalutamide [5]: partially alleviate
